According to patent US20210017607A1, “Methods of Predicting Responsiveness to Cancer Therapies” (The University of Chicago, priority 2019, published 2021):

How the values were obtained:
[1] = test system: Myc-CAP (STING^lo) cancer cells; assay: IFNβ1 ELISA of supernatants after DMXAA treatment; type: cell-based, mouse; conditions: 36 hours
Experimental: (§1) FIGS. 15A-15E. Differential STING pathway activation within B6-Myc (STING^hi) cell lines and BMDMs relative to Myc-CAP (STING^lo) cells. (15A, 15B) The indicated cancer cell lines and BMDMs were treated with DMXAA (mouse STING agonist) for 1 and 24 hours, respectively, and protein extracts were interrogated for cGAS/STING pathway activation with the indicated antibodies by Western blotting. Supernatants were collected from for IFNβ1 ELISA following 36 hours of treatment with DMXAA (15C, 15D). (15E) Syngeneic Myc-CAP (STING^lo) tumors were processed into single cell suspensions and used for phycoerythrin-based sorting of CD45+ cellular fractions. Equal numbers of cells from these fractions were stimulated with DMXAA. Supernatants were collected at 36 hrs for detection of IFNB1 by ELISA; n=3 independent experiments; Significance/p-values were calculated by one-way Anova (for 15C & 15E) or paired t-test (for 15D); TAM=tumor associated macrophage; s.e.=short exposure; l.e.=long exposure.
(§2) Cancer Cell Lines. Transgenic c-myc” prostate tumor derived cell line, Myc-CAP) (STING^lo) was obtained from ATCC and passaged in 1× DMEM (without phenol red) containing 10% fetal bovine serum, 1% penicillin-streptomycin and 2% L-glutamine. The corresponding c-myc^hi line derived from a C57BL6 generated background were grown for in vitro studies, using same culture conditions as for Myc-CAP. […]

[2] = test system: B6-Myc (STING^hi) cancer cells; assay: IFNβ1 ELISA of supernatants after DMXAA treatment; type: cell-based, mouse; conditions: 36 hours
Experimental: as §1, §2

[3] = test system: cGAS/STING signaling pathway components p-TBK1 and p-IRF3; assay: Western blotting of cGAS/STING pathway activation; type: cell-based, mouse
Experimental: as §1
Western Blot Analysis. RIPA and T-PER buffer (Thero Scientific®), supplemented with protease (Roche®) and HALT phosphatase inhibitor cocktail (Roche®), were used for preparation of lysates from in vitro cell lines and whole tumor chunks, respectively. For western blotting, the following antibodies were used from Cell Signaling Technology®: Polyclonal rabbit anti-mouse-phospho-γH2AX, phospho-AKT, total AKT, cGAS, STING, phospho-IRF3, total IRF3, phospho-TBK1, total TBK1, PTEN, β-actin and GAPDH. Monoclonal anti-mouse PAR antibody was obtained from Trevigen®. Images of scanned blots were processed using ADOBE Photoshop®.

[4] = test system: Myc-CAP tumors with Intermediate tumor cell intrinsic levels of STING; assay: Survival of mice bearing STING-overexpressing Myc-CAP tumors; type: in vivo, mouse; conditions: DMXAA single intra-tumoral dose
Experimental: FIG. 52. STING agonist treatment is protective to mice bearing Myc-CAP tumors with Intermediate (not high) tumor cell intrinsic levels of STING. Syngeneic mice bearing Myc-CAP wild-type (WT) and STING overexpressed (STING OE; clone 34) or STING intermediate (STING OE; clone 35) tumors (200 mm^3) were treated with DMXAA ([…] intra-tumoral dose). Tumors were monitored until cut-off tumor volume of 2500 mm^3, and Kaplan Meier curves were plotted. n=3 mice per cohort.

PI3K = assay: In vitro target inhibition by western blotting (PI3K/AKT); type: cell-based, mouse
PARP = assay: In vitro target inhibition by western blotting (PARylation); type: cell-based, mouse
B6-Myc (STING^hi) cells = assay: p-γH2AX foci (DNA DSBs) by confocal microscopy; type: cell-based, mouse; conditions: 36 hours; rucaparib 500 nM, buparlisib 1 μM
Experimental: FIGS. 17A-17C. PARPi/PI3Ki combination induces intracellular DNA DSBs, and proportionate release of MV surface-associated DNA DSBs from B6-Myc (STING^hi) cancer cells, without affecting cellular viability. B6-Myc (STING^hi) cells were treated with indicated drugs singly or in combination for 36 hours. (17A) Cells were stained with anti-mouse specific p-γH2AX antibody and fluorescently labeled secondary antibody for determination of DNA DSBs, which were quantified by confocal microscopy. (17B) Protein extracts from cells in (17A) were analyzed for the indicated pharmacodynamic biomarkers by western blotting. […] Significance/p-values were calculated by one-way ANOVA.
Confocal Microscopy. […] Staining for DNA DSBs was done with anti-mouse primary antibody specific for phospho-γH2AX (1:500 dilution, Cell Signaling Technology and secondary anti-rabbit IgG antibody conjugated to AF647 (1:1000-1:2000 dilution in 1×PBS, Thermo Fisher Scientific®). Anti-mouse specific β-actin conjugated to Phycoerythrin (PE, Thermo Fisher Scientific®) was used to stain the cytoskeleton. All staining procedures were done at 4° C. for 30 minutes. Cells were then washed 3 times with 1×PBS and imaged immediately. All images were collected using an Olympus Fluoview® 1000 using a 100× oil objective. Acquired images were analyzed by ImageJ software, developed at NIH.

Cc1ccc2c(=O)c3cccc(CC(=O)O)c3oc2c1C [DMXAA, 5,6-Dimethylxanthenone-4-acetic Acid]
induction in IFN-β levels [1]: not observed | fold induction in IFN-β levels [2]: 48.1 fold | activation of p-TBK1 and p-IRF3 ([3]; B6-Myc (STING^hi) cells): activated | activation of c-GAS/STING signaling pathway ([3]; BMDMs): activated the c-GAS/STING signaling pathway | activation of p-TBK1 and p-IRF3 ([3]; Myc-CAP (STING^lo) cells): not observed | survival (Kaplan Meier) [4]: protective

Nc1cc(C(F)(F)F)c(-c2cc(N3CCOCC3)nc(N3CCOCC3)n2)cn1 [buparlisib]
concentration that achieved complete target inhibition in vitro (PI3K; B6-Myc cells (FIG. 17B)): 1 µM | target inhibitory concentration (PI3K; BMDMs (FIG. 30A)): 1 | activation of the PI3K/AKT pathway within BMDMs (PI3K; BMDMs co-cultured with R-MVs, 24 hours): inhibits activation of the PI3K/AKT pathway | complete target inhibition concentration (PI3K; Myc-CAP cells (FIG. 29B)): 1 µM

CNCc1ccc(-c2[nH]c3cc(F)cc4c3c2CCNC4=O)cc1 [rucaparib]
concentration that achieved complete target inhibition in vitro (PARP; B6-Myc cells (FIG. 17B)): 500 nM | concentration that completely inhibits PARylation (PARP; B6-Myc in vitro): 500 nm | complete target inhibition concentration (PARP; Myc-CAP cells (FIG. 29B)): 500 nM | DNA double-strand breaks (p-γH2AX foci) (B6-Myc (STING^hi) cells): did not show a statistically significant increase
